{"source": "patent US10292991B2", "about": "“Small molecule therapeutic compounds that reduce the incidence of intracerebral hemorrhage and brain microhemorrhages” (St. Michaels Hospital, priority 2016, dated 2019)", "key": {"Integrin β3 (Itgb3) mRNA": {"tested_on": "Integrin β3 (Itgb3) mRNA", "assay": "qRT-PCR of integrin β3 mRNA in atorvastatin-treated zebrafish larvae", "assay_type": "in vivo, zebrafish (Danio rerio)", "conditions": "1 μmol/L atorvastatin plus 500 nmol/L drug, n=3", "procedure": "(§1) qRT-PCR was used to assess relative expression of selected genes (an average of two biological trial and three technical replicates and each trial is a pool of 60 larvae/treatment), using β-actin as the housekeeping gene control. 3 dpf, Tg(Flk:GFP; Gata:dsRed) zebrafish larvae were used for RNA extraction and cDNA synthesis. Atorvastatin and drug treatment were performed as previously mentioned in drug screening. Total RNA was extracted from these larvae (a pool of 50-60 larvae/treatment) using the RNeasy extraction kit (Qiagen, Mississauga, ON, CAN) and treated with DNase. The concentration of total RNA was determined spectrophotometrically at 260/280 nm using a NanoDrop™ spectrophotometer. First-strand cDNA was synthesized from 1 μg of total RNA using random hexamer primers.\n(§2) In each case, forward primer is shown on the top and reverse primer on the bottom.\n(§3) PCR was carried out in a 20 μl total volume and included 1×PCR buffer, 1.25 mM MgCl2, 0.25 mM dNTP, 1 U Taq polymerase, 0.5 μmol/L forward, and reverse primers and 1 μl cDNA."}, "CCM3 (Ccm3) mRNA": {"tested_on": "CCM3 (Ccm3) mRNA", "assay": "qRT-PCR of CCM3 mRNA in atorvastatin-treated zebrafish larvae", "assay_type": "in vivo, zebrafish (Danio rerio)", "conditions": "1 μmol/L atorvastatin plus 500 nmol/L drug, n=3", "procedure": "as §1, §2, §3"}, "[1]": {"tested_on": "ICH induced by anti-β3 integrin serum in neonatal mice", "assay": "Anti-β3 integrin mouse model of intracerebral hemorrhage", "assay_type": "in vivo, β3+/− mice (neonates)", "text": "An anti-β3 integrin model of intracerebral hemorrhage (ICH) was generated according to our previously reported methods (Yougbare I, Lang S, Yang H et al. Maternal anti-platelet beta3 integrins impair angiogenesis and cause intracranial hemorrhage. J Clin Invest 2015; 125:1545-1556). Briefly, serum containing anti-β3 antibodies was generated by immunizing β3−/− female mice with gel-filtered wild type platelets via tail-vein injections twice a week. To detect anti-β3 antibody, blood was collected from the saphenous vein of immunized female mice and left to clot. […]\nFor the integrin ICH model, brains were taken out of the skull, cut at the mid-coronal position and assessed in a binary manner for whether or not there was any evidence of ICH. […]\nBrains were scanned using 7T Burker MRI with 16-channel solenoid coils. […] Following the reconstruction of images and applying image distortion correction algorithms, all brains were processed and analyzed for total volume of brain and total volume of hemorrhage. Quantification was done using percentage of bleeding (normalized to each brain size). […] Lastly, quantification was done in a blinded fashion. All quantifications and 3D reconstructions were performed using a combination of Display and Amira processing software."}, "[2]": {"tested_on": "zebrafish embryos treated with LPS", "assay": "LPS-induced ICH/BMH and mortality in zebrafish embryos", "assay_type": "in vivo", "conditions": "1 μmol/L in fish water; LPS 200 mg/mL; preliminary data", "procedure": "Experiment 1: LPS-induced ICH/BMH in zebrafish embryos. The lead compounds will be tested in a LPS model of ICH/BMH to determine if rescue of the ICH/BMH phenotype is a general property of these compounds or it is specific to statin-induced ICH/BMH. […] LPS concentration used was 200 mg/mL. […] Experiments are ongoing to define the rescuing effects of artemether on LPS-induced brain hemorrhage. Double transgenic zebrafish (Gata1:DsRed/Flk1:GFP) with green fluorescent vessel and red fluorescent red blood cells are used. Arrow points to hemorrhage."}, "VE-Cadherin (Cdh5) mRNA": {"tested_on": "VE-Cadherin (Cdh5) mRNA", "assay": "qRT-PCR of VE-cadherin mRNA in atorvastatin-treated zebrafish larvae", "assay_type": "in vivo, zebrafish (Danio rerio)", "conditions": "1 μmol/L atorvastatin plus 500 nmol/L drug, n=3", "procedure": "as §1, §2, §3"}}}
{"molecule": "CO[C@H]1O[C@@H]2O[C@@]3(C)CC[C@H]4[C@H](C)CC[C@@H]([C@H]1C)[C@@]24OO3", "note": "[Artemether]", "values": [{"measurement": "Integrin β3 transcription level (qRT-PCR)", "setting": "Integrin β3 (Itgb3) mRNA", "value": "upregulation"}, {"measurement": "CCM3 transcription level (qRT-PCR)", "setting": "CCM3 (Ccm3) mRNA", "value": "returned to normal"}, {"measurement": "ICH incidence", "setting": "[1]; 25 mg/kg i.p. with anti-β3 sera at P2, n=24, model control 77%", "value": 47, "unit": "%"}, {"measurement": "Total volume of ICH (MRI)", "setting": "[1]; preliminary data, data not shown, vs controls", "value": "reduced"}, {"measurement": "Effect on fish survival (LPS-induced mortality)", "setting": "[2]", "value": "protective effect"}, {"measurement": "VE-cadherin transcription level (qRT-PCR)", "setting": "VE-Cadherin (Cdh5) mRNA", "value": "upregulation"}]}
